{
  "source": "ChEMBL document CHEMBL1201862",
  "about": "“PubChem BioAssay data set” (2004)",
  "key": {"[1]": {"target": "T1, Sphingosine 1-phosphate receptor 4 (Homo sapiens, UniProt O95977)", "T1 sequence (O95977 whole entry)": "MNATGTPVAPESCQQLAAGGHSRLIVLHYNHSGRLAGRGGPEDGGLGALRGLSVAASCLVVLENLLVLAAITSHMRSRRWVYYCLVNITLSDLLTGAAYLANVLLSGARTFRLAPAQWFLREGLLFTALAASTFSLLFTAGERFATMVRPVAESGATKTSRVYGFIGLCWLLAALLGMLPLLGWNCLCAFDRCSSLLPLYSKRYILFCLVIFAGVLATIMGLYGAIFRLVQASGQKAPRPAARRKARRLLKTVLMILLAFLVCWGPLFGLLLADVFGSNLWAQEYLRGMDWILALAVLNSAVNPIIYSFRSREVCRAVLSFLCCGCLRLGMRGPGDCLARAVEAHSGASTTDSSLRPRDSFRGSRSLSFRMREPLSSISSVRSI", "test": "Late-stage fluorescence dose response cell-based assay to identify agonists of the Sphingosine 1-Phosphate Receptor 4 (S1P4): purchased compounds EC50. [Related pubchem assays (depositor defined):AID1509, AID1523, AID1563, AID1686, AID1701, AID1801]", "format": "functional"}, "T-cell": {"tested_on": "T-cell", "test": "loss of vesicle association with mouse CD8+ T cells – mouse 2C CD8+ T cells, flow cytometry, dose response (AID 485284)", "format": "functional"}, "[2]": {"target": "T2, Runt-related transcription factor 1/Core-binding factor subunit beta (Homo sapiens, UniProt Q01196+Q13951)", "T2 sequence (Q01196 whole entry, the tested form may be a part)": "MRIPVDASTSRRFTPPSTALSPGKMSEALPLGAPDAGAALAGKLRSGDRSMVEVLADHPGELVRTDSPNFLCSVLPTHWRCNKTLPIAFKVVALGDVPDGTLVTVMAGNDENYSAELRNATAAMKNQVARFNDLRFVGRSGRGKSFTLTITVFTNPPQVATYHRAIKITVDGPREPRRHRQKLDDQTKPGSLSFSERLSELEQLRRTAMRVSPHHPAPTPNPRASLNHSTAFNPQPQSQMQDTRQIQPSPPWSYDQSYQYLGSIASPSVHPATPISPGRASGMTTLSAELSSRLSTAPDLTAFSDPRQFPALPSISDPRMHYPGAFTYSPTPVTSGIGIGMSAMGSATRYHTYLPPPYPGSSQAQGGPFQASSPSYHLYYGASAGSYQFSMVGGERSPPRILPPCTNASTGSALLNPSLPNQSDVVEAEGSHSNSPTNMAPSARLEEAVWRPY", "T2 sequence (Q13951 whole entry, the tested form may be a part)": "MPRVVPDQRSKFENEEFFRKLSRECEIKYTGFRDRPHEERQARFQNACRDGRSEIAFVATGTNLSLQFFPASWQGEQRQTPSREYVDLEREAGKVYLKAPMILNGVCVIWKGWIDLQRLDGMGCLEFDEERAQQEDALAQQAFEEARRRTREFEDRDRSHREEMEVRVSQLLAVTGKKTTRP", "test": "Runt domain/CBFb-SMMHC interaction disruptors – biochemical, TR-FRET (AID 1438)", "format": "protein assay"}, "[3]": {"target": "T2, Runt-related transcription factor 1/Core-binding factor subunit beta", "test": "disruptors of Runt domain/CBFb-SMMHC interaction – biochemical, FRET, Cerulean-Runt, Venus-CBFb-SMMHC, uHTS, […] (AID 1434)", "format": "protein assay"}, "Hexokinase-1": {"target": "Hexokinase-1 (Homo sapiens, UniProt P19367)", "sequence (P19367 whole entry)": "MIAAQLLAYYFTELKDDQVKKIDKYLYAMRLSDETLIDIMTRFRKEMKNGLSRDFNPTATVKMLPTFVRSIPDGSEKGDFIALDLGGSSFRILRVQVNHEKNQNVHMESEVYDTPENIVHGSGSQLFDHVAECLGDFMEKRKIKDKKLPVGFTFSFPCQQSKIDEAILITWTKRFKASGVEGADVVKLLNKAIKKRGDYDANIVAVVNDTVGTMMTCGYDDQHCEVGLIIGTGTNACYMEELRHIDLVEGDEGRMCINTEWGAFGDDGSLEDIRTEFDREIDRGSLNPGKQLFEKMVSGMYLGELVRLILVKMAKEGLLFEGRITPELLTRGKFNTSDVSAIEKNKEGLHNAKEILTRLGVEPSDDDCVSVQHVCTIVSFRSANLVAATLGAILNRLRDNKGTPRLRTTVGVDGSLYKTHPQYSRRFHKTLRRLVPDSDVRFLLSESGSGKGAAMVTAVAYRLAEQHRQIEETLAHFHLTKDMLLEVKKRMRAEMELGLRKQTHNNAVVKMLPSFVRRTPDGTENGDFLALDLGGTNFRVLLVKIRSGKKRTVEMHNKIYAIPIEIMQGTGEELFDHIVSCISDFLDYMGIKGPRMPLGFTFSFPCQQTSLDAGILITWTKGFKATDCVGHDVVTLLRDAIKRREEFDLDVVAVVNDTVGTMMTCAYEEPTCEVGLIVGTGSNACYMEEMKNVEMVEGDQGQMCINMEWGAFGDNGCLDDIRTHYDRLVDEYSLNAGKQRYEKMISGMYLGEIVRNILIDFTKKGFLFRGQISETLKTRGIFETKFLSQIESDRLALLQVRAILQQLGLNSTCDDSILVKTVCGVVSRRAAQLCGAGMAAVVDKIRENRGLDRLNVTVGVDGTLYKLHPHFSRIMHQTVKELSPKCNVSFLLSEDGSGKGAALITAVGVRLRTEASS", "test": "HK1 enzyme activation by HKDC1 hits – biochemical, selectivity assay for HKDC1 activator project, dose response (AID 504762)", "format": "functional"}, "Hexokinase HKDC1": {"target": "T3, Hexokinase HKDC1 (Homo sapiens, UniProt Q2TB90)", "T3 sequence (Q2TB90 whole entry)": "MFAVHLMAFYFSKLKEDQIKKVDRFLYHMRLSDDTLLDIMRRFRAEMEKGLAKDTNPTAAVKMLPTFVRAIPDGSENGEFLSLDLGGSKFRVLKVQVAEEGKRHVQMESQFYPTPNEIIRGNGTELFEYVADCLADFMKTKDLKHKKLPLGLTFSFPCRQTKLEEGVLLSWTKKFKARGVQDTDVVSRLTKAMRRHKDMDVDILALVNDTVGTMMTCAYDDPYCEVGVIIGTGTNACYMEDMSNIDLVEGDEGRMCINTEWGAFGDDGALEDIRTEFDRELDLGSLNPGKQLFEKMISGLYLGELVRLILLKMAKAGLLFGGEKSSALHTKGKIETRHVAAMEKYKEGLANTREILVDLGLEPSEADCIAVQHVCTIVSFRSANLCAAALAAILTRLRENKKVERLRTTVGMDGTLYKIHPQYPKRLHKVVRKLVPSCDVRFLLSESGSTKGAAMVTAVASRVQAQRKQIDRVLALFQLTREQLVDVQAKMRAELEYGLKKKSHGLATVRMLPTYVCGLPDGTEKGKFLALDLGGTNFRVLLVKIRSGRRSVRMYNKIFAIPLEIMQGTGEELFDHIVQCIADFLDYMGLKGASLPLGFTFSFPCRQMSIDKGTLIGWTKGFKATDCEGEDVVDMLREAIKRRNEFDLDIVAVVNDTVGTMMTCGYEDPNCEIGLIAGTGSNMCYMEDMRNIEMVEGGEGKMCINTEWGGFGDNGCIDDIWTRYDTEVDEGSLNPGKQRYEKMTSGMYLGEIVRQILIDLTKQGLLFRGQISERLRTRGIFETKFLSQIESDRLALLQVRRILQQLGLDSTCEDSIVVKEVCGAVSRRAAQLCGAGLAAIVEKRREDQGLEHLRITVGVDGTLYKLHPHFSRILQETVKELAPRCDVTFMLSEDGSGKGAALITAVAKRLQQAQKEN", "test": "activation of HKDC1 glucose phosphorylation – biochemical, W721R variant, dose response (AID 504730)", "format": "functional"}, "[4]": {"target": "T4, Microphthalmia-associated transcription factor (Homo sapiens, UniProt O75030)", "T4 sequence (O75030 whole entry)": "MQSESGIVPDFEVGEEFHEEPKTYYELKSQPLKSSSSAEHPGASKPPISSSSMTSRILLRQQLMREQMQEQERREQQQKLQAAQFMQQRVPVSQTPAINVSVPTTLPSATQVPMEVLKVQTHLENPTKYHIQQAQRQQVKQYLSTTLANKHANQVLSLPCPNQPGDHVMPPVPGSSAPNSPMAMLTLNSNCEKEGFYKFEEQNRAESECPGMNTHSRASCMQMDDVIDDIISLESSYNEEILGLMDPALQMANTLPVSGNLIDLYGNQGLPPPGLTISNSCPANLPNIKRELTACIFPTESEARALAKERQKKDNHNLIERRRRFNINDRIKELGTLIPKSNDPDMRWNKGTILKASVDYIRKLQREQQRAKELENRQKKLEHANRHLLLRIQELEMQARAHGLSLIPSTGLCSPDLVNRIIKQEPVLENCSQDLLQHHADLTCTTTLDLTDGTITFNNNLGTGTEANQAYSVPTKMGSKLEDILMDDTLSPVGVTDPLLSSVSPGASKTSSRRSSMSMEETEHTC", "test": "reducers of TRPM1 reporter luminescence, concentration series – cell-based, SK-MEL-5, cherry-picked, set 3, MITF inhibitor project, dose response (AID 493073)", "format": "functional"}, "[5]": {"test": "THP-1 cell cytotoxicity, dose response, cytotoxicity control for non-replicating M. tuberculosis project (AID 489025)", "format": "functional"}, "[6]": {"target": "T5, Heat shock factor protein 1 (Mus musculus, UniProt P38532)", "T5 sequence (P38532 whole entry)": "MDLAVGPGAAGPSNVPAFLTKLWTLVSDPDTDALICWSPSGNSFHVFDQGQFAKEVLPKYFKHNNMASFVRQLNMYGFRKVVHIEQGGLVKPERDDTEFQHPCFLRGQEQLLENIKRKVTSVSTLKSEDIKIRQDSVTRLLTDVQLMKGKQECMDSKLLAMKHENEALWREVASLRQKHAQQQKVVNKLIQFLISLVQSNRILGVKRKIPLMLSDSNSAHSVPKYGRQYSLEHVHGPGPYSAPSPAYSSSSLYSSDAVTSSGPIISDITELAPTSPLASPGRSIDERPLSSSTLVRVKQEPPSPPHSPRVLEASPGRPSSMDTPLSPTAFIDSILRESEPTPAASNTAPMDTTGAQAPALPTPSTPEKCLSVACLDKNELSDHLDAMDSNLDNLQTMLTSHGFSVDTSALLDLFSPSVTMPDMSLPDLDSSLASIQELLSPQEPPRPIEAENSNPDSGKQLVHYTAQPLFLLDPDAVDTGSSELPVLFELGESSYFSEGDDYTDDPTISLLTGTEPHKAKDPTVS", "test": "enhancement of HSF1-driven luciferase signal – cell-based, NIH3T3, luminescence, dose retest, confirmation (AID 435004);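 note: stress induced by proteasome inhibitor MG132 added 30 min after compound; actives raise luminescence as potentiators of the MG132 stress response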", "format": "functional"}, "[7]": {"target": "T6, Replicative DNA helicase DnaB (Mycobacterium tuberculosis, UniProt P9WMR3)", "T6 sequence (P9WMR3 whole entry)": "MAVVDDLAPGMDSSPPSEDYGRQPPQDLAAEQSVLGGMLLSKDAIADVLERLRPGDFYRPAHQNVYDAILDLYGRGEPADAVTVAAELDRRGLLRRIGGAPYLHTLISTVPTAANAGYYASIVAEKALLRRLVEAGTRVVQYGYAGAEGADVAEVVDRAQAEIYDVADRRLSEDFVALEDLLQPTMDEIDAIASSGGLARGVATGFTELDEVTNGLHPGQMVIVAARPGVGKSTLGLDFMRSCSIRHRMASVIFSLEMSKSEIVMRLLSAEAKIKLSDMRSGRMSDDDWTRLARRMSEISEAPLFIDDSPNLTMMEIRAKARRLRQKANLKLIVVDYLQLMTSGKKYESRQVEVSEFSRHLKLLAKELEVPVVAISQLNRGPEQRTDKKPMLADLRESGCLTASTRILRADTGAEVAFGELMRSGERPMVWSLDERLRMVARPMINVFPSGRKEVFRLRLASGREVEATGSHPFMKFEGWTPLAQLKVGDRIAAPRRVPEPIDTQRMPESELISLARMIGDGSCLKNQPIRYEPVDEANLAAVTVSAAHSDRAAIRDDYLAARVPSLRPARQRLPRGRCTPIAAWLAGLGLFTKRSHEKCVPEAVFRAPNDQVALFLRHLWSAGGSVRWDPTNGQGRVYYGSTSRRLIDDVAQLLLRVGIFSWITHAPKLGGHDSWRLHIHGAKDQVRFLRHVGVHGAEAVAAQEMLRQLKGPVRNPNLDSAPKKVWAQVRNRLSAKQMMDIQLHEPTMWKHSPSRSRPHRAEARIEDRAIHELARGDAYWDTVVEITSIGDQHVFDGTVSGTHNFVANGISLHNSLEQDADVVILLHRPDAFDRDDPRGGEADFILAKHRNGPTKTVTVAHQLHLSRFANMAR", "test": "DnaB intein splicing inhibitors, dose response, biochemical, cell-free fluorescence (AID 449749)", "format": "functional"}, "cells": {"test": "cells", "format": "functional"}, "[8]": {"test": "Vero E6 cell cytotoxicity, dose response, cytotoxicity control for non-replicating M. tuberculosis project, secondary assay (AID 492998)", "format": "functional, VeroE6", "details": "Vero C1008"}, "Protein RecA": {"target": "T7, Protein RecA (Mycobacterium tuberculosis, UniProt P9WHJ3)", "T7 sequence (P9WHJ3 whole entry)": "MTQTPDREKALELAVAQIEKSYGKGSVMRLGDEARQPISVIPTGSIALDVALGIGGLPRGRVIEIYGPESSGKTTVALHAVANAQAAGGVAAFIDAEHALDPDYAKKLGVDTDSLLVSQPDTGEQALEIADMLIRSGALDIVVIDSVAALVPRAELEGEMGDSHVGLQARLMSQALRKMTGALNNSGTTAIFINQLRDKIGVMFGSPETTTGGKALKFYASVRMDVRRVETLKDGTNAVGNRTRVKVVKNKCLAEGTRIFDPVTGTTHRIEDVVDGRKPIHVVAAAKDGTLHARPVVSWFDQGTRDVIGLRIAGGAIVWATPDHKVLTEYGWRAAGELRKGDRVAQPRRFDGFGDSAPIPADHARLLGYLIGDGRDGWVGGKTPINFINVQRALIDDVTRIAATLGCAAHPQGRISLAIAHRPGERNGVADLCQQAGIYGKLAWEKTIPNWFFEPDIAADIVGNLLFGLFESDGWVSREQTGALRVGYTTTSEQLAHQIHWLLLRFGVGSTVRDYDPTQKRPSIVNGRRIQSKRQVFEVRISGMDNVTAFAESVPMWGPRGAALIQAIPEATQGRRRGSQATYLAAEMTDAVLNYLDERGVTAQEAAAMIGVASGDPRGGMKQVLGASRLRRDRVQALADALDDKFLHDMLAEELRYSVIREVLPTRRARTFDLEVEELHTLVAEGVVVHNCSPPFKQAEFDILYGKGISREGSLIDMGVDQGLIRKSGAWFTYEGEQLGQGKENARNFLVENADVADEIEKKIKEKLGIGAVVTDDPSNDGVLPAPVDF", "test": "Fluorescence Cell-Free Homogeneous Dose Retest to Identify Inhibitors of RecA-Intein Splicing Activity. [Related pubchem assays (depositor defined):AID2097, AID2223, AID489010, AID492950]", "format": "functional"}, "[9]": {"test": "microbe, parasite or virus in culture", "format": "functional", "details": "Mycobacterium tuberculosis"}},
  "note": "Calls of active or inactive are those of the source.",
  "data": [
    {"compound": "Cc1nn(Cc2ccccc2)c(Cl)c1C(=O)OC(C)C(=O)NCc1ccccc1", "note": "(centres undefined)", "values": [
      {"measurement": "EC50", "setting": "[1]", "value": "> 50 µM (inactive)"}
    ]},
    {"compound": "Cc1ccc(S(=O)(=O)N2CCC(NC(=O)c3ccccc3)CC2)cc1", "values": [
      {"measurement": "EC50", "setting": "T-cell", "value": "7.83 µM (active)"}
    ]},
    {"compound": "CCOC(=O)N1CCC(NC(=O)c2ccc3c(c2)N(C)CCS3)CC1", "values": [
      {"measurement": "IC50", "setting": "[2]", "value": "> 100 µM (inactive)"},
      {"measurement": "IC50", "setting": "[3]", "value": "> 100 µM (inactive)"}
    ]},
    {"compound": "COc1ccccc1C1=NN=C(Nc2cccc(S(=O)(=O)N(C)C)c2)SC1", "values": [
      {"measurement": "EC50", "setting": "Hexokinase-1", "value": "20.1 µM (inactive)"},
      {"measurement": "EC50", "setting": "Hexokinase HKDC1", "value": "19.5 µM (active)"}
    ]},
    {"compound": "COC(=O)c1ccc2c(c1O)C(=O)c1ccccc1C2=O", "values": [
      {"measurement": "AC50", "setting": "[4]", "value": "1.61 µM (active)"},
      {"measurement": "CC50", "setting": "[5]", "value": "> 40 µM (active)"},
      {"measurement": "EC50", "setting": "[6]", "value": "3.73 µM (active)"},
      {"measurement": "AC50", "setting": "[7]", "value": "51.4 µM (active)"},
      {"measurement": "IC50", "setting": "cells", "value": "4.52 µM (active)"},
      {"measurement": "CC50", "setting": "[8]", "value": "> 20 µM (active)"},
      {"measurement": "EC50", "setting": "Protein RecA", "value": "0.925 µM (active)"},
      {"measurement": "CC50", "setting": "[9]", "value": "24.2 µM (active)"}
    ]}
  ]
}
